{"source": "paper PMC2131780", "about": "“A Tale of Switched Functions: From Cyclooxygenase Inhibition to M-Channel Modulation in New Diphenylamine Derivatives” (PLoS ONE, 2007)", "key": {"rat hippocampal neurons": {"tested_on": "rat hippocampal neurons", "assay": "Current-clamp recording of cultured hippocampal neurons", "assay_type": "cell-based", "description": "For hippocampal neuronal cultures, Sprague-Dawley rat embryos (E18) were removed by caesarian section and their hippocampi were dissected out. The tissue was digested with papain for 20 min, triturated to a single-cell suspension, and plated at a density of 40,000 cells per ml on a substrate of bovine collagen type IV and 100 µg/ml poly-L-lysine in 13 mm diameter glass coverslips of a 24-multiwell plate. The culture medium consisted of Modified Eagle's Medium containing 5% horse serum (Biological Industries, Beit HaEmek, Israel), B-27 neuronal supplement (Invitrogen, Carlsbad, CA), 100 U/ml penicillin, 100 µg/ml streptomycin, and 2 mM glutamine. D-glucose was supplemented to a final concentration of 6 g/l. Cytosine-1-D-arabinofuranoside (5 µM) was added after 5 days to arrest glial cell proliferation. For electrophysiological recordings hippocampal neurons were used at 10–14 days in culture. All cultures were maintained at 37°C in humidified air containing 5% CO2.\nFor current-clamp recordings in primary cultured neurons, the patch pipettes were filled with (in mM): 135 KCl, 1 K2ATP, 1 MgATP, 2 EGTA, 1.1 CaCl2, 5 glucose, 10 HEPES, adjusted with KOH at pH 7.4 (315 mOsm). […] A liquid junction potential of about −15.6 mV was measured between the intracellular and saline solutions and corrected on-line. […]"}, "[1]": {"tested_on": "primary hippocampal neurons (glutamate and GABA release)", "assay": "Spontaneous and miniature post-synaptic currents in cultured hippocampal neurons", "assay_type": "cell-based, rat", "description": "Because of their slow activation and their lack of inactivation, M-channels could modulate neuronal activity during repetitive spike discharge and tune neurotransmitter release. Figure 8 illustrates the effect of compound 15 on synaptic transmission and transmitter release. Spontaneous excitatory and inhibitory post-synaptic currents (sEPSCs and sIPSCs) were recorded from dense cultures of primary hippocampal neurons, using the voltage-clamp configuration of the whole-cell patch-clamp technique. […] Spontaneous EPSCs were recorded at −70 mV and were pharmacologically isolated by blocking GABAA receptor-mediated inhibitory post-synaptic currents (with 10 µM bicuculline and 30 µM picrotoxin). The sEPSCs were […] mediated by the activation of AMPA receptors and to a lesser extent of NMDA receptors, as they were blocked by 10 µM NBQX and 10 µM AP-5. Thus, sEPSCs reflect the synaptic release of glutamate. Under control conditions, sEPSCs appeared as repetitive bursts whose frequency was variable, ranging from 0.3 to 2 Hz and increasing with the density of the hippocampal culture. […] Consequently, compound 15 reduced by about 50% the total charge transfer as well as the charge transfer within the bursts (Figure 8D–F).\nFor hippocampal neuronal cultures, Sprague-Dawley rat embryos (E18) were removed by caesarian section and their hippocampi were dissected out. […]\nSpontaneous excitatory postsynaptic currents (EPSCs) were recorded in the voltage-clamp configuration of the whole-cell patch-clamp technique at a holding potential of −70 mV as previously described; the extracellular solution contained (in mM) 160 NaCl, 2.5 KCl, 10 HEPES, 10 glucose, 2 CaCl2; pH 7.3 (325 mOsm), to which 30 µM picrotoxin and 10 µM bicuculline methyl iodide were added. […] Spontaneous inhibitory postsynaptic currents (IPSCs) were recorded at a holding potential of −70 mV; the extracellular solution contained (in mM) 160 NaCl, 2.5 KCl, 10 HEPES, 10 glucose, 2 CaCl2; pH 7.3 (325 mOsm), to which 10 µM NBQX and 10 µM AP-5 were added. […]"}, "[2]": {"tested_on": "COX enzymes (CT26 mouse colon adenocarcinoma cells)", "assay": "COX inhibition, PGE2 production in CT26 cells", "assay_type": "cell-based", "from_the_text": "(§1) In addition, the aromatic rings of the diphenylamine moiety were substituted with different electron donating or withdrawing groups. In a first screen, two parameters were checked: (a) the non-selective inhibition of COX-1/COX-2 enzyme activities, measured by the production of PGE2 in cultured mouse colon adenocarcinoma (CT26) and mouse Lewis lung carcinoma cells (D122) cells; (b) the M-channel activity, measured by the heterologous coexpression of Kv7.2 and Kv7.3 subunits in Chinese hamster ovary (CHO) cells.\n(§2) Mouse colon adenocarcinoma CT26 and mouse Lewis lung carcinoma D122 cells were grown in DMEM (D122) or RPMI (CT26) supplemented with 10% fetal calf serum, 4% glutamine, 1% penicillin-streptomycin-nystatin and 3% non essential amino acids (D122) and maintained in a humidified 37°C incubator with 5% CO2. For the COX assays, cells were grown onto 24 multiwell plates. Before the assay, cells were washed with serum-free medium; then tested compounds were added to the medium and incubated for 30 min at 37°C after which 30 µM arachidonic acid was added and incubated for additional 20 min. At the end of the incubations, 10 µM indomethacin was added to stop the reaction and medium was transferred to another 24 multiwell plate for measuring PGE2 production by radioimmunoassay (DuPont-NEN; Boston, MA) according to manufacturer protocol. Protein determination was assayed on scraped cells and was used to normalize the amount of PGE2 production. Assays with purified ovine COX-1 and human recombinant COX-2 were performed using the COX inhibitor screening assay (Cayman chemical company, Ann Arbor, MI), according to manufacturer protocol."}, "[3]": {"tested_on": "COX enzymes (D122 mouse Lewis lung carcinoma cells)", "assay": "COX inhibition, PGE2 production in D122 cells", "assay_type": "cell-based", "details": "average of two experiments in triplicate", "from_the_text": "as §1, §2"}}, "note": "Where two headings read alike, the source gives them in different places."}
{"molecule": "O=C(Cc1cc([N+](=O)[O-])ccc1Nc1c(Cl)cccc1Cl)OCCO", "note": "[Compound 15]", "values": [{"measurement": "number of evoked action potentials, hippocampal neurons", "setting": "rat hippocampal neurons; 25 µM, 75–200 pA for 400 ms", "result": "2.1±0.5"}, {"measurement": "hyperpolarization of hippocampal neurons", "setting": "rat hippocampal neurons; exposed to compound", "result": "−8.5", "unit": "mV"}, {"measurement": "reduction of sEPSCs total charge transfer and charge transfer within bursts", "setting": "[1]; 25 µM, holding −70 mV", "result": "about 50%"}, {"measurement": "inhibition at 25 µM", "setting": "[1]; Rattus norvegicus, Hippocampal neuron, 25 µM, holding −70 mV, read-out: inhibition of sIPSCs frequency of spontaneous occurrence", "result": "> 98", "unit": "%"}, {"measurement": "effect on amplitude and kinetics of miniature EPSCs and IPSCs", "setting": "[1]; not shown", "result": "did not affect"}, {"measurement": "IC50", "setting": "[2]; average of two experiments in triplicate, read-out: COX inhibition (IC50, µM) CT26", "result": 0.048, "unit": "µM"}, {"measurement": "IC50", "setting": "[2]; read-out: COX inhibition IC50, typical experiment (Figure 1)", "result": 0.069, "unit": "µM"}, {"measurement": "IC50", "setting": "[3]", "result": 0.229, "unit": "µM"}]}
